From patent publication US20220081412A1, “QUINOLINYL-PYRAZINE-CARBOXAMIDE COMPOUNDS AND USES THEREOF” (The Regents of the University of Michigan, priority 2018, published 2022)

System: MIA PaCa-2 cells
Experiment: Bru-seq analysis for nascent RNA synthesis (log2FC of genes, GSEA gene sets)
Format: cell-based, human
Conditions: 4 h
[1] = GO_NUCLEAR_NUCLEOSOME, upregulated
[2] = GO_ORGANIC_HYDROXY_COMPOUND_BIOSYNTHETIC_PROCESS, upregulated
[3] = GO_PROTEIN_DNA_COMPLEX, upregulated
[4] = GO_REGULATION_OF_ENDOPLASMIC_RETICULUM_STRESS_INDUCED_INTRINSIC_APOPTOTIC_SIGNALING_PATHWAY, upregulated
[5] = GO_REGULATION_OF_STEROID_BIOSYNTHETIC_PROCESS, upregulated
[6] = GO_REGULATION_OF_STEROID_METABOLIC_PROCESS, upregulated
[7] = GO_RIBOSOMAL_SUBUNIT, upregulated
[8] = GO_STEROID_BIOSYNTHETIC_PROCESS, upregulated
[9] = GO_STEROID_METABOLIC_PROCESS, upregulated
[10] = GO_STEROL_BIOSYNTHETIC_PROCESS, upregulated
[11] = GO_STEROL_METABOLIC_PROCESS, upregulated
[12] = GO_STRUCTURAL_CONSTITUENT_OF_RIBOSOME, upregulated
[13] = HAMAI_APOPTOSIS_VIA_TRAIL_UP, C2, downregulated
[14] = HUTTMANN_B_CLL_POOR_SURVIVAL_DN, C2, downregulated
[15] = KEGG_ACUTE_MYELOID_LEUKEMIA, upregulated
[16] = KEGG_ADIPOCYTOKINE_SIGNALING_PATHWAY, upregulated
[17] = KEGG_BIOSYNTHESIS_OF_UNSATURATED_FATTY_ACIDS, upregulated
[18] = KEGG_CARDIAC_MUSCLE_CONTRACTION, upregulated
[19] = KEGG_ENDOMETRIAL_CANCER, upregulated
[20] = KEGG_FC_EPSILON_RI_SIGNALING_PATHWAY, upregulated
[21] = KEGG_GLYCOLYSIS_GLUCONEOGENESIS, upregulated
[22] = KEGG_INSULIN_SIGNALING_PATHWAY, upregulated
[23] = KEGG_LONG_TERM_DEPRESSION, upregulated
[24] = KEGG_MTOR_SIGNALING_PATHWAY, upregulated
[25] = KEGG_NON_SMALL_CELL_LUNG_CANCER, upregulated
[26] = KEGG_OXIDATIVE_PHOSPHORYLATION, upregulated
[27] = KEGG_PARKINSONS_DISEASE, upregulated
[28] = KEGG_PORPHYRIN_AND_CHLOROPHYLL_METABOLISM, upregulated
[29] = KEGG_PPAR_SIGNALING_PATHWAY, upregulated
[30] = KEGG_PROGESTERONE_MEDIATED_OOCYTE_MATURATION, upregulated
[31] = KEGG_PROSTATE_CANCER, upregulated
[32] = KEGG_RENAL_CELL_CARCINOMA, upregulated
[33] = KEGG_SNARE_INTERACTIONS_IN_VESICULAR_TRANSPORT, upregulated
[34] = KEGG_SYSTEMIC_LUPUS_ERYTHEMATOSUS, upregulated
[35] = KEGG_VEGF_SIGNALING_PATHWAY, upregulated
[36] = KRCTCNNNNMANAGC_UNKNOWN, TFBT, upregulated
[37] = MILI_PSEUDOPODIA_HAPTOTAXIS_UP, C2, downregulated
[38] = NIKOLSKY_BREAST_CANCER_8Q12_Q22_AMPLICON, C2, downregulated

Cc1cc(NC(=O)c2cnc(N3CCNCC3)cn2)c2ncccc2c1 [J28, N-(6-methylquinolin-8-yl)-5-(piperazin-1-yl)pyrazine-2-carboxamide]
ES [1]: 0.745 | NES [1]: 2.088 | ES [2]: 0.503 | NES [2]: 1.959 | ES [3]: 0.554 | NES [3]: 2.251 | ES [4]: 0.678 | NES [4]: 2.024 | ES [5]: 0.710 | NES [5]: 2.097 | ES [6]: 0.615 | NES [6]: 2.031 | ES [7]: 0.469 | NES [7]: 1.976 | ES [8]: 0.605 | NES [8]: 2.176 | ES [9]: 0.523 | NES [9]: 2.100 | ES [10]: 0.757 | NES [10]: 2.428 | ES [11]: 0.651 | NES [11]: 2.434 | ES [12]: 0.452 | NES [12]: 1.990 | log2FC (GPR135, downregulated protein-coding gene): −1.08 | log2FC (GRIN2C, downregulated protein-coding gene): −0.95 | ES [13]: −0.508 | NES [13]: −2.848 | ES (HEB_Q6, TFBT, upregulated): 0.415 | NES (HEB_Q6, TFBT, upregulated): 1.688 | log2FC (HRH4, downregulated protein-coding gene): −0.86 | ES [14]: −0.605 | NES [14]: −2.158 | log2FC (IFT80, downregulated protein-coding gene): −1.12 | ES [15]: 0.524 | NES [15]: 1.872 | ES [16]: 0.429 | NES [16]: 1.493 | ES [17]: 0.555 | NES [17]: 1.531 | ES [18]: 0.424 | NES [18]: 1.386 | ES [19]: 0.437 | NES [19]: 1.492 | ES [20]: 0.442 | NES [20]: 1.464 | ES [21]: 0.478 | NES [21]: 1.563 | ES [22]: 0.349 | NES [22]: 1.403 | ES [23]: 0.461 | NES [23]: 1.491 | ES (KEGG_LYSOSOME, upregulated): 0.494 | NES (KEGG_LYSOSOME, upregulated): 1.958 | ES [24]: 0.447 | NES [24]: 1.469 | ES [25]: 0.477 | NES [25]: 1.610 | ES [26]: 0.387 | NES [26]: 1.544 | ES [27]: 0.358 | NES [27]: 1.404 | ES (KEGG_PEROXISOME, upregulated): 0.443 | NES (KEGG_PEROXISOME, upregulated): 1.643 | ES [28]: 0.496 | NES [28]: 1.448 | ES [29]: 0.485 | NES [29]: 1.573 | ES [30]: 0.434 | NES [30]: 1.602 | ES [31]: 0.402 | NES [31]: 1.527 | ES [32]: 0.393 | NES [32]: 1.392 | ES (KEGG_RIBOSOME, upregulated): 0.534 | NES (KEGG_RIBOSOME, upregulated): 2.148 | ES [33]: 0.503 | NES [33]: 1.647 | ES [34]: 0.661 | NES [34]: 2.271 | ES [35]: 0.501 | NES [35]: 1.705 | log2FC (KLF10, downregulated protein-coding gene): −0.88 | ES [36]: 0.784 | NES [36]: 2.441 | log2FC (LINC01337, downregulated noncoding gene): −1.06 | log2FC (LINC01764, downregulated noncoding gene): −1.03 | log2FC (LINC01930, downregulated noncoding gene): −1.08 | log2FC (MALAT1, downregulated noncoding gene): −1.19 | ES (MAZR_01, TFBT, upregulated): 0.380 | NES (MAZR_01, TFBT, upregulated): 1.598 | ES [37]: −0.420 | NES [37]: −2.372 | log2FC (MTND2P28, downregulated noncoding gene): −0.97 | ES (NFE2_01, TFBT, upregulated): 0.387 | NES (NFE2_01, TFBT, upregulated): 1.630 | ES (NFY_Q6_01, TFBT, upregulated): 0.370 | NES (NFY_Q6_01, TFBT, upregulated): 1.617 | ES [38]: −0.499 | NES [38]: −2.099 | ES (NRF2_01, TFBT, upregulated): 0.356 | NES (NRF2_01, TFBT, upregulated): 1.597
